# Test results published in patent US6586639B2, “Functional alcohol releasing substance” (Kao Corporation, priority 1999, dated 2003).
# Where “and” joins values, the source holds several entries; their conditions need not be identical. Identical values can stand only once.
# Tested on: Aspergillus niger
# Assay: Fungal resistance test on coated test cloth
# Assay type: cell-based
# Parameters: key to Judgment (fungal resistance): NG: Completely no fungal growth; TG: Growth on less than 10% of the surface area; SG: Growth on 10% or more and less than 30% of the surface area; MG: Growth on 30% or more and less than 60% of the surface area; HG: Growth on 60% or more of the surface area
# Conditions: cultured 29±1° C. 7 days; for Growth rate (%) Average: average of three test cloths; for Growth rate (%): single test cloths (three per solution), 0.3 ml ethanol solution (A 1.17%, B 1.00%, C 0.300%) coated, dried 48 hours
# Experimental: Each of betaine ester (1), betaine ester (3) and geraniol was dissolved in 99.5% ethanol to prepare solutions having the following concentrations and used as test solutions (A), (B) and (C), respectively.
# Test solution (A): betaine ester (1), 1.17% in concentration
# Test solution (B): betaine ester (3), 1.00% in concentration
# Test solution (C): geraniol, 0.300% in concentration
# (1) Preparation of test cloth
# A 0.3 ml portion of each test solution or 0.3 ml of 99.5% ethanol used as a control was separately coated on a cotton-polyester mixture test cloth cut into a disc of 25 mm in diameter and then the cloth was dried at 25° C. under 30% relative humidity for 48 hours to be used as a test cloth. Three sheets of the test cloth were prepared for one test solution and used in the test.
# (2) Fungal resistance test
# A plate agar medium having the following composition was prepared to a thickness of 15 mm in a Petri dish of 150 mm in diameter. The medium was used by sterilizing it in advance at 120° C. for 20 minutes in an autoclave.
# Pure water: 1,500 ml, glucose: 15 g, agar: 23 g, inorganic salts stock solution (NH4NO3 90 g, KH2PO4 60 g, MgSO4 7H2O, 15 g, KCl 15 g, pure water 1,000 g): 50 ml
# Each test cloth was put on the above medium, and about 1 ml of a spore suspension prepared by dispersing spores of a fungus (Aspergillus niger) in sterile water (containing 0.005% sodium dioctylsulfosuccinate) was sprayed. This was cultured at 29±1° C. for 7 days to carry out comparative test of fungal resistance by inspecting growing condition of the fungus on the periphery or surface of the sample, and the results were evaluated based on the following five step criteria by observing growth condition of the fungus on the test cloth surface with the naked eye and under a microscope. That is, when the fungus is not grown on the surface of a test cloth and also, when the test cloth is peeled from the medium, the fungus is not grown on the backside but forming an inhibition zone, the result is judged as excellent in fungal resistance (NG).
# Completely no fungal growth: NG (no growth)
# Growth on less than 10% of the surface area: TG (trace of growth)
# Growth on 10% or more and less than 30% of the surface area: SG (slight growth)
# Growth on 30% or more and less than 60% of the surface area: MG (moderate growth)
# Growth on 60% or more of the surface area: HG (heavy growth)
Compound,Growth rate (%) Average,Judgment (fungal resistance),Growth rate (%),Growth rate (%) (listed as (C))
"CCCCCCCCCCCCCCCCCC(=O)NCCC[N+](C)(C)CC(=O)OC/C=C(\C)CCC=C(C)C.[Cl-] [betaine ester (1), N,N-dimethyl-N-geranyloxycarbonylmethyl-N-(3-(octadecanoylamino)propyl)ammonium chloride]",0%,NG,0%,–
"CC(C)=CCC/C(C)=C/CO [geraniol, reference compound]",36%,MG (Growth on 30% or more and less than 60% of the surface area),–,35% and 32% and 40%
"CCCCCCCCCCCC(=O)NCCC[N+](C)(C)CC(=O)OC/C=C(\C)CCC=C(C)C.[Cl-] [betaine ester (3), N,N-dimethyl-N-geranyloxycarbonylmethyl-N-(3-(dodecanoylamino)propyl)ammonium chloride]",0%,NG,0%,–
